Data reported in DBAASP.
Values after ≈ are worked out from the molar mass of the structure shown. Each block holds one compound with its values, some of them ahead of it.

Columns and labels:
Experiment in all cases: ≥ marks a high value that may be exact or a test limit, other limits are often not marked, values filed in µg/mL are converted to µM
[1] = test system: Staphylococcus aureus
[2] = test system: Streptococcus sanguinis
[3] = test system: Aeromonas salmonicida CIP 103209T
[4] = test system: Bacillus megaterium CIP 51.17
[5] = test system: Enterococcus faecalis CIP 76.117
[6] = test system: Escherichia coli CIP 54.8T
[7] = test system: Listeria monocytogenes CIP 110871
[8] = test system: Salmonella typhimurium CIP 103446
[9] = test system: Staphylococcus aureus CIP 53.156
[10] = test system: Acinetobacter baumannii
[11] = test system: Escherichia coli ATCC 25922
[12] = test system: Escherichia coli K88
[13] = test system: Escherichia coli K99
[14] = test system: Escherichia coli UB1005
[15] = test system: Escherichia coli
[16] = test system: Klebsiella pneumoniae
[17] = test system: Pseudomonas aeruginosa ATCC 27853
[18] = test system: Pseudomonas aeruginosa CICC 21625
[19] = test system: Pseudomonas aeruginosa CICC 21630
[20] = test system: Pseudomonas aeruginosa PAO1
[21] = test system: Pseudomonas aeruginosa
[22] = test system: Salmonella enterica subsp. enterica serovar Pullorum C79-13
[23] = test system: Salmonella enterica subsp. enterica serovar Typhimurium ATCC 14028
[24] = test system: Salmonella enterica subsp. enterica serovar Typhimurium C77-31
[25] = test system: Listeria monocytogenes EGD
[26] = test system: Staphylococcus aureus ATCC 25923
[27] = test system: Bacillus subtilis
[28] = test system: Candida albicans ATCC 2002
[29] = test system: Escherichia coli ML-35p
[30] = test system: Enterococcus faecalis ATCC 29212
[31] = test system: Klebsiella pneumoniae ATCC 13883
[32] = test system: Staphylococcus aureus ATCC BAA-44
[33] = test system: Staphylococcus epidermidis ATCC 51625
[34] = test system: Streptococcus pyogenes ATCC 19615

MIC [1]: 3.3 µM (≈ 3.46 µg/mL)
MIC [2]: 3.3 µM (≈ 3.46 µg/mL)
Compound: NC(=O)[C@H](Cc1ccccc1)NC(=O)[C@H](Cc1ccccc1)NC(=O)[C@H](Cc1ccccc1)NC(=O)[C@H](Cc1ccccc1)NC(=O)[C@H](Cc1ccccc1)NC(=O)[C@H](Cc1ccccc1)NC(=O)[C@@H](N)Cc1ccccc1 [FFFFFFF]

MIC [3]: 5 µM (≈ 13.3 µg/mL)
MIC [4]: 3.16 µM (≈ 8.38 µg/mL)
MIC [5]: ≥ 86.6 µM
MIC [6]: 3.16 µM (≈ 8.38 µg/mL)
MIC [7]: ≥ 35.4 µM
MIC [8]: ≥ 50 µM
MIC [9]: 5.1 µM (≈ 13.5 µg/mL)
Compound: CC[C@H](C)[C@H](NC(=O)[C@H](CC(C)C)NC(=O)[C@H](Cc1cnc[nH]1)NC(=O)[C@H](Cc1ccccc1)NC(=O)[C@H](CO)NC(=O)[C@@H](NC(=O)[C@H](CO)NC(=O)CN)[C@@H](C)O)C(=O)N[C@@H](Cc1ccc(O)cc1)C(=O)N[C@@H](CC(N)=O)C(=O)N[C@@H](CCCCN)C(=O)N[C@@H](Cc1c[nH]c2ccccc12)C(=O)N[C@@H](Cc1ccccc1)C(=O)N[C@@H](C)C(=O)N[C@H](C(=O)N[C@@H](CCCCN)C(=O)N[C@@H](CCCN=C(N)N)C(=O)N[C@@H](CCCN=C(N)N)C(=O)N[C@@H](CCCN=C(N)N)C(=O)N[C@@H](CCCCN)C(=O)N[C@@H](CCCN=C(N)N)C(=O)O)C(C)C [GSTSFHLIYNKWFAVKRRRKR]

MIC [10]: ≥ 64 µM
MIC [11]: > 64 µM
MIC [12]: ≥ 64 µM
MIC [13]: ≥ 64 µM
MIC [14]: ≥ 64 µM
MIC [15]: > 64 µM
MIC [16]: > 64 µM
MIC [17]: > 64 µM
MIC [18]: ≥ 64 µM
MIC [19]: ≥ 64 µM
MIC [20]: > 64 µM
MIC [21]: > 64 µM
MIC [22]: ≥ 64 µM
MIC [23]: > 64 µM
MIC [24]: ≥ 64 µM
Compound: CC[C@H](C)[C@H](N)C(=O)N[C@@H](CCCCN)C(=O)N1CCC[C@H]1C(=O)N[C@H](C(=O)N[C@H](C(=O)N[C@@H](CCCCN)C(=O)N1CCC[C@H]1C(=O)N[C@H](C(=O)N[C@H](C(=O)N[C@@H](CCCCN)C(=O)N1CCC[C@H]1C(=O)N[C@H](C(=O)N[C@H](C(=O)N[C@@H](CCCCN)C(=O)N1CCC[C@H]1C(=O)N[C@H](C(N)=O)[C@@H](C)CC)[C@@H](C)CC)[C@@H](C)CC)[C@@H](C)CC)[C@@H](C)CC)[C@@H](C)CC)[C@@H](C)CC [IKPIIKPIIKPIIKPI]

MIC [1]: 29.4 µM (≈ 25.5 µg/mL)
MIC [2]: ≥ 32.6 µM
Compound: CC(C)C[C@H](N)C(=O)N[C@@H](Cc1ccccc1)C(=O)N[C@@H](Cc1ccccc1)C(=O)N[C@@H](Cc1ccccc1)C(=O)N[C@@H](Cc1ccccc1)C(=O)N[C@@H](Cc1ccccc1)C(N)=O [LFFFFF]

MIC [11]: 32 µM (≈ 69.6 µg/mL)
MIC [25]: 8 µM (≈ 17.4 µg/mL)
MIC [17]: 16 µM (≈ 34.8 µg/mL)
MIC [26]: 32 µM (≈ 69.6 µg/mL)
Compound: CC(C)C[C@H](NC(=O)[C@H](CC(C)C)NC(=O)[C@H](CCC(N)=O)NC(=O)[C@H](CCCCN)NC(=O)[C@H](CC(C)C)NC(=O)[C@H](CCCCN)NC(=O)[C@H](CCCCN)NC(=O)[C@@H](N)CC(C)C)C(=O)NCC(=O)N[C@@H](CCCCN)C(=O)N[C@@H](CC(C)C)C(=O)N[C@@H](CO)C(=O)N[C@@H](CCC(=O)O)C(=O)N[C@@H](Cc1ccccc1)C(=O)N[C@@H](C)C(=O)N[C@@H](C)C(=O)N[C@@H](C)C(=O)N[C@@H](Cc1ccccc1)C(=O)N[C@H](C(=O)N[C@@H](C)C(N)=O)C(C)C [LKKLKQLLGKLSEFAAAFVA]

MIC [25]: ≥ 128 µM
Compound: CC(C)C[C@H](NC(=O)[C@H](C)NC(=O)[C@@H](NC(=O)[C@H](C)NC(=O)[C@H](CC(C)C)NC(=O)[C@H](CCCCN)NC(=O)[C@H](Cc1ccccc1)NC(=O)[C@H](CCCCN)NC(=O)[C@H](C)NC(=O)[C@@H](N)CO)C(C)C)C(=O)NCC(=O)N[C@@H](CCC(N)=O)C(=O)N[C@@H](Cc1ccccc1)C(=O)N[C@@H](CCCCN)C(=O)N[C@@H](CCC(=O)O)C(=O)N[C@@H](CCCCN)C(=O)N[C@@H](CC(C)C)C(=O)N[C@@H](CC(C)C)C(=O)N[C@@H](CC(C)C)C(=O)N[C@@H](C)C(N)=O [SAKFKLAVALGQFKEKLLLA]

MIC [27]: 2.68 µM (≈ 9.37 µg/mL)
MIC [28]: 1.61 µM (≈ 5.63 µg/mL)
MIC [29]: 7.13 µM (≈ 25 µg/mL)
MIC [17]: > 28.5 µM
MIC [26]: 1.34 µM (≈ 4.69 µg/mL)
Compound: CC[C@H](C)[C@H](NC(=O)[C@H](C)NC(=O)[C@@H](NC(=O)[C@@H](NC(=O)[C@H](CCCCN)NC(=O)[C@@H](NC(=O)[C@H](CCCCN)NC(=O)[C@H](CC(=O)O)NC(=O)[C@H](CCCN=C(N)N)NC(=O)[C@@H](NC(=O)[C@@H](N)CO)[C@@H](C)CC)[C@@H](C)CC)[C@@H](C)O)[C@@H](C)CC)C(=O)N[C@@H](CC(=O)O)C(=O)N[C@@H](CC(C)C)C(=O)N[C@@H](C)C(=O)N[C@@H](CCCCN)C(=O)N[C@@H](CO)C(=O)N[C@@H](C)C(=O)NCC(=O)N[C@H](C(=O)NCC(=O)N[C@H](C(=O)N[C@@H](CC(C)C)C(=O)N[C@@H](CCCCN)C(=O)N[C@H](C(=O)N[C@@H](CC(C)C)C(=O)N[C@H](C(=O)N[C@H]1CSSC[C@@H](C(=O)O)NC(=O)[C@H](CO)NC(=O)[C@H](CCCCN)NC(=O)[C@H](CC(=O)O)NC(=O)[C@H](CC(C)C)NC(=O)[C@H](CCCCN)NC1=O)[C@@H](C)CC)[C@@H](C)O)C(C)C)[C@@H](C)O [SIRDKIKTIAIDLAKSAGTGVLKTLICKLDKSC]

MIC [27]: 4 µM (≈ 11.8 µg/mL)
MIC [30]: 4 µM (≈ 11.8 µg/mL)
MIC [15]: 4 µM (≈ 11.8 µg/mL)
MIC [31]: 2 µM (≈ 5.92 µg/mL)
MIC [17]: 4 µM (≈ 11.8 µg/mL)
MIC [23]: 4 µM (≈ 11.8 µg/mL)
MIC [26]: 4 µM (≈ 11.8 µg/mL)
MIC [32]: 6 µM (≈ 17.8 µg/mL)
MIC [33]: 6 µM (≈ 17.8 µg/mL)
MIC [34]: 6 µM (≈ 17.8 µg/mL)
Compound: CC(C)C[C@H](NC(=O)[C@H](CO)NC(=O)[C@H](CCCN=C(N)N)NC(=O)[C@H](CCCCN)NC(=O)[C@@H](NC(=O)[C@@H](NC(=O)CNC(=O)[C@H](CCCN=C(N)N)NC(=O)[C@H](Cc1cnc[nH]1)NC(=O)[C@H](Cc1c[nH]c2ccccc12)NC(=O)[C@H](Cc1ccccc1)NC(=O)[C@H](Cc1cnc[nH]1)NC(=O)[C@H](Cc1ccc(O)cc1)NC(=O)[C@@H](N)Cc1ccc(O)cc1)C(C)C)[C@@H](C)O)C(=O)N[C@@H](CO)C(=O)N1CCC[C@H]1C(=O)N[C@@H](Cc1cnc[nH]1)C(=O)N[C@@H](CCCN=C(N)N)C(=O)N1CCC[C@H]1C(=O)N[C@@H](CCCN=C(N)N)C(=O)N[C@@H](Cc1cnc[nH]1)C(=O)N[C@@H](CO)C(=O)N[C@@H](CCCN=C(N)N)C(=O)O [YYHFWHRGVTKRSLSPHRPRHSR]
